The subject of one assay is RS4;11 cells. Kind of assay: Cell viability in RS4;11 cells (CellTiter Glo2, 4 days). The settings on record: Homo sapiens, 96 h. Type of assay: cell-based. How it is done: Approximately 10,000 RS4;11 cells per well of a 96-well plate were treated with DMSO (no drug control) or each compound in Table 6 in an 8-point dose response for 4 days. Cell viability was measured using CellTiter Glo2. The IC50 of each compound was determined using CDD Vault.
(In general: ATP-based viability assays read luminescence as a measure of living cells.)

The subject of the next assay is AGS cells. The experiment in a line: Cell viability in AGS cells (CellTiter Glo2, 8-point dose response, 4 days). Type of assay: cell-based, human. How it is done: AGS cells were treated with DMSO (no drug control) or each compound in Table 5 in an 8-point dose response for 4 days. Cell viability was measured using CellTiter Glo2. The IC50 of each compound was determined using CDD Vault.

Another assay relates to MV-4-11 cells. The experiment in a line: Cell viability in MV-4-11 cells (CellTiter Glo2, 4 days). Type of assay: cell-based. To be noted: Homo sapiens, MV4-11, 96 h. How it is done: Approximately 10,000 MV-4-11 cells per well of a 96-well plate were treated with DMSO (no drug control) or each compound in Table 6 in an 8-point dose response for 4 days. Cell viability was measured using CellTiter Glo2. The IC50 of each compound was determined using CDD Vault.

SMILES strings stand for the structures. Where a name gives a salt, the structure may show the parent alone. Read-outs that look alike come from different tables or passages of the source.

Turning to `CCC(=O)N1CCc2cc(-c3ccc(C(=O)NCc4cccnc4)cc3)cc(C)c21` [Compound I-17, 4-(7-methyl-1-propionylindolin-5-yl)-N-(pyridin-3-ylmethyl)benzamide], the IC50 was determined as 270 nM with RS4;11 cells; 1020 nM in the assay with AGS cells; 1050 nM with AGS cells (Homo sapiens, AGS, 96 h); 670 nM in the assay with MV-4-11 cells. Taken in the same sequence, the figures for `CCC(=O)N1CCc2cc(-c3ccc(C(=O)NCc4cccnc4)cc3)ccc21` [Compound I-43, 4-(1-propionylindolin-5-yl)-N-(pyridin-3-ylmethyl) benzamide] were 606 nM, 2360 nM, 2480 nM and 2930 nM. In the case of `CCC(=O)N(C)c1ccc(-c2ccc(C(=O)NCc3cccnc3)cc2)cc1` [Compound I-45, 4′-(N-methylpropionamido)-N-(pyridin-3-ylmethyl)-[1,1′-biphenyl]-4-carboxamide], the IC50 in the assay with RS4;11 cells was 689 nM; in the assay on AGS cells, 4290 nM; with AGS cells (Homo sapiens, AGS, 96 h) it was 4450 nM; in the assay with MV-4-11 cells, 218 nM.

Consider `CCC(=O)N1CCc2cc(-c3ccc(C(=O)NCc4cccnc4)cn3)ccc21` [Compound I-54, 6-(1-propionylindolin-5-yl)-N-(pyridin-3-ylmethyl)nicotinamide], for which the half-maximal inhibitory concentration (IC50) in the assay with RS4;11 cells was 4920 nM; in the assay with AGS cells it was over 16900 nM; in the assay on AGS cells (Homo sapiens, AGS, 96 h), over 17000 nM; in the assay with MV-4-11 cells, 10400 nM. The like results for `CCC(=O)N1CCc2c1ccc(-c1ccc(C(=O)NCc3cccnc3)cc1)c2C` [Compound I-80, 4-(4-methyl-1-propionylindolin-5-yl)-N-(pyridin-3-ylmethyl)benzamide] were, in that order, 886 nM, 653 nM, 490 nM and 565 nM. Take `CCC(=O)N1CCc2cc(-c3ccc(C(=O)NCc4cccnc4)c(F)c3)ccc21` [Compound I-98, 2-fluoro-4-(1-propionylindolin-5-yl)-N-(pyridin-3-ylmethyl) benzamide]: the half-inhibitory concentration (IC50) in the assay on RS4;11 cells is over 30000 nM; in the assay with MV-4-11 cells it was 845 nM. For the compound `CC(=O)N(C)c1ccc(-c2ccc(C(=O)NCc3cccnc3)nc2)cc1` [Compound I-202, 5-(4-(N-methylacetamido)phenyl)-N-(pyridin-3-ylmethyl)picolinamide], the IC50 was found to be 2550 nM with RS4;11 cells; 17500 nM in the assay on AGS cells; 10300 nM with AGS cells (Homo sapiens, AGS, 96 h); 1470 nM in the assay with MV-4-11 cells.

In the assay with AGS cells (Homo sapiens, AGS, 96 h), `O=C(NCc1cccnc1)c1ccc(-c2ccc3c(c2)CCN3C(=O)C2CC2)cc1` [Compound I-220] registered a 50% inhibitory concentration (IC50) of 2940 nM. For the compound `CCC(=O)N(C)c1ccc(-c2ccc(C(=O)NCc3ccc(C)nc3C)cc2)cc1` [Compound I-221], in the assay with AGS cells (Homo sapiens, AGS, 96 h), the half-inhibitory concentration (IC50) stood at 607 nM. For the compound `CCC(=O)N1CCc2cc(N3CCN(C(=O)NCc4cccnc4)CC3)ccc21` [Compound I-223], inhibition in the assay on AGS cells (Homo sapiens, AGS, 96 h) was half-maximal at 4540 nM (IC50). As for `CCC(=O)N(C)c1ccc(-c2ccc(C(=O)NCc3cccnc3)cc2)c(Cl)c1` [Compound I-224, 2′-chloro-4′-(N-methylpropionamido)-N-(pyridin-3-ylmethyl)-[1,1′-biphenyl]-4-carboxamide], the concentration for half-maximal inhibition (IC50) with RS4;11 cells was found to be 5320 nM; in the assay on AGS cells (Homo sapiens, AGS, 96 h), 1480 nM; in the assay on MV-4-11 cells, 1100 nM.

Take `CCC(=O)N(C)c1ccc(-c2ccc(C(=O)NCc3cccnc3)cc2)cc1Cl` [Compound I-225, 3′-chloro-4′-(N-methylpropionamido)-N-(pyridin-3-ylmethyl)-[1,1′-biphenyl]-4-carboxamide]: the IC50 in the assay with RS4;11 cells was 237 nM; in the assay on AGS cells (Homo sapiens, AGS, 96 h), 1090 nM; in the assay on MV-4-11 cells, 613 nM. Consider `CCC(=O)N(C)c1ccc(-c2ccc(S(=O)(=O)NCc3cccnc3)cc2)cc1` [Compound I-226], for which the half-maximal inhibitory concentration (IC50) with AGS cells (Homo sapiens, AGS, 96 h) turned out to be 9760 nM. Same read-out and setting: with `CCC(=O)N(C)c1ccc(-c2ccc(C(=O)NCc3cccnc3)nc2)cc1C` [Compound I-227, 5-(3-methyl-4-(N-methylpropionamido)phenyl)-N-(pyridin-3-ylmethyl)picolinamide] the figure was 5220 nM. With `CCC(=O)N(C)Cc1ccc(-c2ccc(C(=O)NCc3cccnc3)cc2)cc1` [Compound I-228, 4′-((N-methylpropionamido)methyl)-N-(pyridin-3-ylmethyl)-[1,1′-biphenyl]-4-carboxamide], the 50% inhibitory concentration (IC50) in the assay on RS4;11 cells turned out to be 1930 nM; in the assay with AGS cells (Homo sapiens, AGS, 96 h), 3810 nM; with MV-4-11 cells it was 765 nM. `CCCC(=O)N(C)c1ccc(-c2ccc(C(=O)NCc3cccnc3)cc2)cc1` [Compound I-230, 4′-(N-methylbutyramido)-N-(pyridin-3-ylmethyl)-[1,1′-biphenyl]-4-carboxamide] yielded a half-inhibitory concentration (IC50) in the assay with AGS cells (Homo sapiens, AGS, 96 h) of 4570 nM. In the case of `CCOC(=O)N(C)c1ccc(-c2ccc(C(=O)NCc3cccnc3)cc2)cc1` [Compound I-231, ethyl methyl(4′-((pyridin-3-ylmethyl)carbamoyl)-[1,1′-biphenyl]-4-yl)carbamate], the IC50 is 2920 nM with RS4;11 cells; 3410 nM with AGS cells (Homo sapiens, AGS, 96 h); 741 nM in the assay with MV-4-11 cells. Taken in the same sequence, the figures for `CCC(=O)N(C)c1ccc(-c2ccc(C(=O)NCc3cccnc3)cn2)cc1C` [Compound I-232, 6-(3-methyl-4-(N-methylpropionamido)phenyl)-N-(pyridin-3-ylmethyl)nicotinamide] were 231 nM, 1280 nM and 1220 nM. In the assay on AGS cells (Homo sapiens, AGS, 96 h), `CCC(=O)N(C)c1ccc(-c2ccc(C(=O)NCc3cncc(F)c3)cc2)cc1` [Compound I-234] registered an IC50 of over 30000 nM.

`CCC(=O)N(C)c1ccc(-c2ccc(C(=O)NCc3cncs3)cc2)cc1` [Compound I-235] had an IC50 in the assay on AGS cells (Homo sapiens, AGS, 96 h) of over 30000 nM. Same read-out and setting: with `CCC(=O)N(C)c1ccc(-c2ccc(C(=O)NCc3cscn3)cc2)cc1` [Compound I-236] the figure was over 30000 nM; with `CCC(=O)N(C)c1ccc(-c2ccc(C(=O)NCc3cncc(C)c3)cc2)cc1` [Compound I-237], 6690 nM; with `CCC(=O)N(C)c1ccc(-c2ccc(C(=O)NCc3cnccc3C)cc2)cc1` [Compound I-238], over 30000 nM. Still for that read-out and setting: to `CCC(=O)N(C)c1ccc(-c2ccc(C(=O)NCc3ccccc3)cc2)cc1` [Compound I-239] belongs over 30000 nM. Compound `CN(C(=O)c1ccccc1)c1ccc(-c2ccc(C(=O)NCc3cccnc3)cc2)cc1` [Compound I-240] displayed an IC50 in the assay on AGS cells (Homo sapiens, AGS, 96 h) of 5110 nM. Turning to `CCC(=O)N(C)c1ccc(-c2nc(C(=O)NCc3cccnc3)cs2)cc1` [Compound I-241, 2-(4-(N-methylpropionamido)phenyl)-N-(pyridin-3-ylmethyl)thiazole-4-carboxamide], the 50% inhibitory concentration (IC50) in the assay with RS4;11 cells is 10500 nM; in the assay on AGS cells (Homo sapiens, AGS, 96 h), over 30000 nM; with MV-4-11 cells it was 3920 nM.

In the case of `CN(C(=O)c1cocn1)c1ccc(-c2ccc(C(=O)NCc3cccnc3)cc2)cc1` [Compound I-245], in the assay with AGS cells (Homo sapiens, AGS, 96 h), the midpoint of inhibition, the IC50, lay at 5160 nM. In turn, `CCC(=O)N(C)c1ccc(-c2ccc(C(=O)NCc3cccnc3)cn2)c(C)c1` [Compound I-246, 6-(2-methyl-4-(N-methylpropionamido)phenyl)-N-(pyridin-3-ylmethyl)nicotinamide] showed a 50% inhibitory concentration (IC50) in the assay with AGS cells (Homo sapiens, AGS, 96 h) of 12100 nM. Still for that read-out and setting: with `CCC(=O)N(C)c1ccc(-c2ccc(C(=O)NCc3cccnc3)cc2)cc1OC` [Compound I-248, 3′-methoxy-4′-(N-methylpropionamido)-N-(pyridin-3-ylmethyl)-[1,1′-biphenyl]-4-carboxamide] the figure was 3590 nM.

The compound `CN(C(=O)CC#N)c1ccc(-c2ccc(C(=O)NCc3cccnc3)cc2)cc1` [Compound I-249] displayed a concentration for half-maximal inhibition (IC50) in the assay on AGS cells (Homo sapiens, AGS, 96 h) of over 18400 nM.

`CC(C)C(=O)N(C)c1ccc(-c2ccc(C(=O)NCc3cccnc3)cc2)cc1` [Compound I-250] had an IC50 in the assay with AGS cells (Homo sapiens, AGS, 96 h) of 1870 nM.

For the compound `CCN(C)C(=O)c1ccc(-c2ccc(C(=O)NCc3cccnc3)cc2)cc1` [Compound I-251], in the assay on AGS cells (Homo sapiens, AGS, 96 h), it took 1650 nM to reach half-maximal inhibition (IC50). `CCC(=O)N1CCc2cc(-c3ccc(C(=O)NCC4=CC[NH2+]CC4)cc3)ccc21` [Mono- formate of I-69, Monoformate 4-(1-propionylindolin-5-yl)-N-((1,2,3,6-tetrahydropyridin-4-yl)methyl)benzamide] showed a concentration for half-maximal inhibition (IC50) with AGS cells (Homo sapiens, 96 h) of over 30000 nM.

For orientation: IC50 means the point on the concentration scale where inhibition reaches its midpoint.

(Values after patent US12522587B2, “Cancer treatments targeting cancer stem cells” (Remedy Plan, Inc., priority 2018, dated 2026).)
